In publication PMC9085648, “Synthesis of novel genistein amino acid derivatives and investigation on their interactions with bovine serum albumin by spectroscopy and molecular docking” (RSC Advances, 2018):
Read-outs that look alike come from different tables or passages of the source.

What was measured:
[1] = tested on: HCT-116; test: MTT cytotoxicity assay, HCT-116; assay type: cell-based; conditions: Homo sapiens, 48 h, mean ± SD of three experiments, read-out: Cancer cell lines IC50, HCT-116
Description: (§1) All cell lines were purchased from the Cell Bank of Type Culture Collection of Chinese Academy of Sciences (Shanghai, China). MGC-803 was routinely cultured in RPMI-1640 medium containing 10% FBS and 1% penicillin/streptomycin. MCF-7, HCT-116 and Hela were routinely cultured in medium DMEM/high glucose containing 10% FBS and 1% penicillin/streptomycin. All cell lines were incubated in culture at 37 °C in air with 5% CO2 for 24 h.
(§2) All cell lines were plated in 96-well plates, and each well contains 4000 cells in 100 μL culture medium. Then the cells were treated with genistein or its amino acid derivatives dissolved in DMSO at different doses in a CO2 incubator at 37 °C for 48 h, and DMSO was used as vehicle control. After removing the culture medium, 10 μL MTT and 90 μL blank culture medium were added to each well and incubated for additional 4 h at 37 °C. The absorbance was determined by a microplate-reader at 490 nm.

[2] = tested on: MGC-803; test: MTT cytotoxicity assay, MGC-803; assay type: cell-based; conditions: Homo sapiens, 48 h, mean ± SD of three experiments, read-out: Cancer cell lines IC50, MGC-803
Description: as §1, §2

[3] = molecular target: T1, BSA (Bos taurus, UniProt P02769); test: Fluorescence quenching of BSA (Stern-Volmer, double-log, van't Hoff); assay type: binding, bovine; conditions: for K SV (quenching constant): BSA 1 μM, pH 7.4; for ΔGexp: ΔGexp = ΔH − TΔS; for K q (quenching rate constant): τ0 = 10^−8 s; for Kd: read-out: K b (binding constant) (converted); for ΔH / ΔS: van't Hoff, 298-310 K
T1 construct: purchased Aladdin's Reagent Co., Ltd. (Shanghai, China)
Description: Fluorescence spectra were carried on a F-7000 fluorescence spectrophotometer (Japan) fitted out with a 1.0 cm quartz dish. The excitation wavelength was set at 280 nm with 5/5 nm slit widths, while the emission wavelength ranged from 290 nm to 500 nm at different temperatures. The BSA solution (1 μM) was titrated with genistein and its amino acid derivatives 4a–4d for three times. The final concentrations of genistein and 4a–4d were (0.0, 6.4, 12.8, 19.2, 25.6, 32, 38.4, 44.8, and 51.2) μM.
The Stern–Volmer equation is often applied to reveal the fluorescence quenching mechanism:[19]1 [drawing 1] where F0 and F are the fluorescence intensities of complex […], respectively.[18] [Q] denotes the concentration of quencher. Ksv and Kq are quenching constant and quenching rate constant of BSA, respectively.[20]τ0 is the lifetime of fluorophore in the absence of genistein, 4a–4d and equals to 10^−8 s.[21] […] It can be observed that the Ksv values decreased gradually with rise in temperature in Table 2. Furthermore, Kq values were in the order of 10^12, which were larger than the maximum diffusion collisional rate constant (2.0 × 10^10 M^−1 s^−1).[22]
Double-logarithmic eqn (2) is often used to explore the binding parameters of static quenching, such as binding constant (Kb) and binding sites (n):[23]2 [drawing 2]
To clarify the binding forces between genistein, 4a–4d and BSA, the thermodynamic parameters were studied via the van't Hoff equations:[25]3 [drawing 3] 4 ΔG = −RT ln K = ΔH − TΔSwhere T denotes the experimental temperature, K denotes the binding constant at the corresponding temperature, R is the gas constant.[26] According to Ross and Subramanian's previous research,[27] the characteristic for van der Waals interactions or/and hydrogen bonding is ΔH < 0 and ΔS < 0, for hydrophobic interaction is ΔH > 0 and ΔS > 0, and for electrostatic interactions is ΔH ≈ 0 and ΔS > 0.[28] The calculation results of the thermodynamic parameters were recorded in Table 3.

[4] = molecular target: T1, BSA; test: Three-dimensional fluorescence spectroscopy of BSA; assay type: binding, bovine
Description: The 3D fluorescence spectra of genistein and compounds 4a–4d were recorded with scanning excitation wavelength ranged from 200 nm to 300 nm with 10 nm interval, and emission wavelength ranged from 290 nm to 470 nm with 5 nm interval for three times. Other parameters were the same as Section 2.4.1.

[5] = tested on: Hela; test: MTT cytotoxicity assay, Hela; assay type: cell-based; conditions: Homo sapiens, 48 h, mean ± SD of three experiments, read-out: Cancer cell lines IC50, Hela
Description: as §1, §2

[6] = tested on: MCF-7; test: MTT cytotoxicity assay, MCF-7; assay type: cell-based; conditions: Homo sapiens, MCF7, 48 h, mean ± SD of three experiments, read-out: Cancer cell lines IC50, MCF-7
Description: as §1, §2

[7] = Peak 1, [BSA]:[compound] = 1:3, 298 K
[8] = Peak 2, [BSA]:[compound] = 1:3, 298 K
[9] = Peak a (Rayleigh scattering), [BSA]:[compound] = 1:3, 298 K

T1 sequence (P02769 25-607): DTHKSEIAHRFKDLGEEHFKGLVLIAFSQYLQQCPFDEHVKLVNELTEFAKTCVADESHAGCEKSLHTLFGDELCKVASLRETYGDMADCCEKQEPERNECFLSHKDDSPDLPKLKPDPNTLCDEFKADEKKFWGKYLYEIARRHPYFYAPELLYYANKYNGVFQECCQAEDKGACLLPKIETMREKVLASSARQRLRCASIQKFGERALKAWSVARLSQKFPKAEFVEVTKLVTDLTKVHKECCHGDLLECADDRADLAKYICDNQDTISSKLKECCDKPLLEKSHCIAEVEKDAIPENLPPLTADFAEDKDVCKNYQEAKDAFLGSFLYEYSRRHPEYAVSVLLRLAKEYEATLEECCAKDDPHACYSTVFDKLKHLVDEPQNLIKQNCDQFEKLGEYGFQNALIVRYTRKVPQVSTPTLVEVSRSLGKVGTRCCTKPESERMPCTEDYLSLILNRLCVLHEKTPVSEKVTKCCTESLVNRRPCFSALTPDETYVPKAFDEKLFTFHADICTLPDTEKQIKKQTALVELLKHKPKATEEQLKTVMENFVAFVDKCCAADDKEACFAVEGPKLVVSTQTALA

Row | Structure (SMILES) | IC50 [1] [µM] | IC50 [2] [µM] | K SV (quenching constant) ([3]; T 298 K) | ΔGexp ([3]; T 298 K) [kJ/M] | K q (quenching rate constant) ([3]; T 298 K) | Kd ([3]; T 298 K) [µM] | n (binding sites) ([3]; T 306 K) | K SV (quenching constant) ([3]; T 306 K) | ΔGexp ([3]; T 306 K) [kJ/M] | K q (quenching rate constant) ([3]; T 306 K) | Kd ([3]; T 306 K) [µM] | n (binding sites) ([3]; T 310 K) | ΔGexp ([3]; T 310 K) [kJ/M] | Kd ([3]; T 310 K) [µM] | ΔH [3] [kJ/M] | ΔS [3] [J K^−1 M^−1] | 3D fluorescence intensity [4, 7] [a.u] | 3D fluorescence peak position λex/λem [4, 7] | 3D fluorescence intensity [4, 8] [a.u] | 3D fluorescence peak position λex/λem [4, 8] | also measured
1 | COC(=O)CNC(=O)COc1cc(O)c2c(=O)c(-c3ccc(O)cc3)coc2c1 [4a] | 65.3 ± 2.91 | 24.4 ± 1.27 | 9.3690 ± 0.1055 10^4 M^−1 | -49.21 | 9.3690 10^12 M^−1 s^−1 | 0.0023 | 1.72 | 9.0645 ± 0.0720 10^4 M^−1 | -47.21 | 9.0645 10^12 M^−1 s^−1 | 0.00952 | 1.66 | -46.22 | 0.0153 | -123.52 | −249.37 | 249.8 | 230/355 | 300.8 | 280/355 | n (binding sites) ([3]; T 298 K): 1.86; K SV (quenching constant) ([3]; T 310 K): 7.7362 ± 0.1223 10^4 M^−1; K q (quenching rate constant) ([3]; T 310 K): 7.7362 10^12 M^−1 s^−1; 3D fluorescence intensity [4, 9]: 167.9 a.u; 3D fluorescence peak position λex/λem [4, 9]: 290/295; IC50 [5]: 66.6 ± 3.6 µM; IC50 [6]: > 100 µM
2 | COC(=O)C(C)NC(=O)COc1cc(O)c2c(=O)c(-c3ccc(O)cc3)coc2c1 (stereo not drawn) [4b] | > 100 | 12.08 ± 0.06 | 8.0160 ± 0.1379 10^4 M^−1 | -42.01 | 8.0160 10^12 M^−1 s^−1 | 0.0649 | 1.53 | 6.9409 ± 0.0956 10^4 M^−1 | -38.43 | 6.9409 10^12 M^−1 s^−1 | 0.0794 | 1.23 | -36.65 | 1.55 | -175.21 | −446.98 | 199.8 | 230/355 | 242.6 | 280/355 | 3D fluorescence intensity [4, 9]: 140.7 a.u; 3D fluorescence peak position λex/λem [4, 9]: 290/295; IC50 [5]: 90.27 ± 0.47 µM; IC50 [6]: 21.3 ± 2.24 µM
3 | COC(=O)C(NC(=O)COc1cc(O)c2c(=O)c(-c3ccc(O)cc3)coc2c1)C(C)C (stereo not drawn) [4c] | 42.64 ± 0.15 | 33.53 ± 0.13 | 6.2575 ± 0.1717 10^4 M^−1 | -41.29 | 6.2575 10^12 M^−1 s^−1 | 0.084 | 1.53 | 5.0010 ± 0.1067 10^4 M^−1 | -37.63 | 5.0010 10^12 M^−1 s^−1 | 0.119 | 1.24 | -35.81 | 2.01 | -177.34 | −456.55 | 254.6 | 230/355 | 338.3 | 280/355 | n (binding sites) ([3]; T 298 K): 1.54; K SV (quenching constant) ([3]; T 310 K): 4.8646 ± 0.1370 10^4 M^−1; K q (quenching rate constant) ([3]; T 310 K): 4.8646 10^12 M^−1 s^−1; 3D fluorescence intensity [4, 9]: 210.9 a.u; 3D fluorescence peak position λex/λem [4, 9]: 290/295; IC50 [5]: 82.71 ± 0.15 µM; IC50 [6]: 99.73 ± 0.11 µM
4 | COC(=O)C(CC(C)C)NC(=O)COc1cc(O)c2c(=O)c(-c3ccc(O)cc3)coc2c1 (stereo not drawn) [4d] | 92.87 ± 0.04 | 35.4 ± 3.72 | 4.9339 ± 0.0500 10^4 M^−1 | -39.53 | 4.9339 10^12 M^−1 s^−1 | 0.15 | 1.47 | 4.8535 ± 0.0465 10^4 M^−1 | -37.19 | 4.8535 10^12 M^−1 s^−1 | 0.209 | 1.28 | -36.02 | 1.42 | -126.67 | −292.42 | 263.8 | 230/355 | 331.4 | 280/355 | n (binding sites) ([3]; T 298 K): 1.50; K SV (quenching constant) ([3]; T 310 K): 4.5804 ± 0.0360 10^4 M^−1; K q (quenching rate constant) ([3]; T 310 K): 4.5804 10^12 M^−1 s^−1; 3D fluorescence intensity [4, 9]: 155.5 a.u; 3D fluorescence peak position λex/λem [4, 9]: 290/295; IC50 [5]: 68.1 ± 1.05 µM; IC50 [6]: 47 ± 3.53 µM
